Toxic doses and inconclusive results are not listed. The calls were made as follows: active = survival T/C of 150% or more; inactive = T/C below 125% in these data.
Test system: BDF1 mice, P388 leukemia ip, median survival T/C
Assay: NCI In Vivo Anticancer Drug Screen. Data for tumor model P388 Leukemia (intraperitoneal) in B6D2F1 (BDF1) mice
Conditions: endpoint: median survival time, higher = longer survival
Outline: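 Vehicle-dosed animals serve as the reference; survival of compound-dosed, tumour-implanted mice is divided by it.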

[1] = dose: 100.0 mg/kg/injection, schedule: Q04DX003 (ip), vehicle: saline with Tween-80
[2] = dose: 200.0 mg/kg/injection, schedule: Q04DX003 (ip), vehicle: saline with Tween-80

Measured: T/C

O=C(Nc1ccccc1)c1ccc(C(F)(F)F)cc1O
inactive: dose: 16.5 mg/kg/injection, schedule: Q01DX009 (ip), vehicle: saline 99 % of control | dose: 25.0 mg/kg/injection, schedule: Q01DX009 (ip), vehicle: saline 93 % of control | dose: 35.0 mg/kg/injection, schedule: Q01DX009 (ip), vehicle: saline 112 % of control | dose: 100.0 mg/kg/injection, schedule: Q01DX009 (ip), vehicle: saline 108 % of control | dose: 200.0 mg/kg/injection, schedule: Q01DX009 (ip), vehicle: saline 95 % of control

OC(c1cc(-c2ccc(C(F)(F)F)cc2)nc(C(F)(F)F)c1)C1CCCCN1 (stereo not given)
inactive: dose: 50.0 mg/kg/injection, schedule: Q01DX009 (ip), vehicle: saline with Tween-80 108 % of control

Nc1nc(SN=Nc2ccc(S(N)(=O)=O)cc2)c2[nH]cnc2n1
inactive: dose: 3.75 mg/kg/injection, schedule: Q01DX009 (ip), vehicle: saline with Tween-80 120 % of control | dose: 7.5 mg/kg/injection, schedule: Q01DX009 (ip), vehicle: saline with Tween-80 104 % of control | dose: 15.0 mg/kg/injection, schedule: Q01DX009 (ip), vehicle: saline with Tween-80 91 % of control

O=C(/C=C/c1ccc2c(c1)OCO2)c1ccc(Cl)cc1
inactive: dose: 50.0 mg/kg/injection, schedule: Q04DX003 (ip), vehicle: saline with Tween-80 100 % of control | [1] 100 % of control | [2] 100 % of control

NC(=O)C(N)=O
inactive: dose: 100.0 mg/kg/injection, schedule: Q01DX009 (ip), vehicle: Klucel (hydroxypropylcellulose) (HPC) 103 % of control | dose: 200.0 mg/kg/injection, schedule: Q01DX009 (ip), vehicle: Klucel (hydroxypropylcellulose) (HPC) 93 % of control | dose: 400.0 mg/kg/injection, schedule: Q01DX009 (ip), vehicle: Klucel (hydroxypropylcellulose) (HPC) 109 % of control

O=C(O)CNC1CSSC1
inactive: dose: 1.56 mg/kg/injection, schedule: Q04DX003 (ip), vehicle: water 97 % of control | dose: 3.12 mg/kg/injection, schedule: Q01DX009 (ip), vehicle: water 111 % of control | dose: 3.12 mg/kg/injection, schedule: Q04DX003 (ip), vehicle: water 88 % of control | dose: 6.25 mg/kg/injection, schedule: Q01DX009 (ip), vehicle: water 101 % of control | dose: 6.25 mg/kg/injection, schedule: Q04DX003 (ip), vehicle: water 93 % of control | dose: 12.5 mg/kg/injection, schedule: Q04DX003 (ip), vehicle: water 88 % of control | dose: 25.0 mg/kg/injection, schedule: Q01DX009 (ip), vehicle: water 109 % of control | dose: 25.0 mg/kg/injection, schedule: Q04DX003 (ip), vehicle: water 94 % of control | dose: 50.0 mg/kg/injection, schedule: Q01DX009 (ip), vehicle: water 108 % of control | dose: 50.0 mg/kg/injection, schedule: Q04DX003 (ip), vehicle: water 86 % of control | dose: 100.0 mg/kg/injection, schedule: Q01DX009 (ip), vehicle: water 91 % of control

CC1CCC2C(C)C(=O)OC2C2(C)C(=O)C=CC12 (stereo not given)
inactive: dose: 6.4 mg/kg/injection, schedule: Q01DX009 (ip), vehicle: alcohol 106 % of control | dose: 9.6 mg/kg/injection, schedule: Q01DX009 (ip), vehicle: alcohol 100 % of control | dose: 14.0 mg/kg/injection, schedule: Q01DX009 (ip), vehicle: alcohol 122 % of control | dose: 22.0 mg/kg/injection, schedule: Q01DX009 (ip), vehicle: alcohol 108 % of control

CC1OC(Oc2c(-c3ccc(O)c(O)c3)oc3cc(O)cc(O)c3c2=O)C(O)C(O)C1O (stereo not given)
inactive: dose: 100.0 mg/kg/injection, schedule: Q01DX009 (ip), vehicle: saline with Tween-80 109 % of control | [1] 113 % of control | dose: 200.0 mg/kg/injection, schedule: Q01DX009 (ip), vehicle: saline with Tween-80 104 % of control | [2] 109 % of control | dose: 264.0 mg/kg/injection, schedule: Q04DX003 (ip), vehicle: saline with Tween-80 104 % of control | dose: 400.0 mg/kg/injection, schedule: Q01DX009 (ip), vehicle: saline with Tween-80 118 % of control | dose: 400.0 mg/kg/injection, schedule: Q04DX003 (ip), vehicle: saline with Tween-80 104 % of control | dose: 600.0 mg/kg/injection, schedule: Q04DX003 (ip), vehicle: saline with Tween-80 104 % of control

O=c1c2ccccc2nnn1Cc1ccco1
inactive: dose: 50.0 mg/kg/injection, schedule: Q01DX005 (ip), vehicle: saline with Tween-80 99 % of control | dose: 200.0 mg/kg/injection, schedule: Q01DX005 (ip), vehicle: saline with Tween-80 89 % of control

C[C@]12CC[C@@H]3c4ccc(Oc5nc(N6CC6)nc(N6CC6)n5)cc4CC[C@H]3[C@@H]1CCC2=O
inactive: dose: 3.12 mg/kg/injection, schedule: Q01DX009 (ip), vehicle: saline with Tween-80 91 % of control | dose: 6.25 mg/kg/injection, schedule: Q01DX009 (ip), vehicle: saline with Tween-80 100 % of control

O=C(O)C(Cc1cccc(F)c1)NC(=O)C(F)(F)F (stereo not given)
inactive: dose: 1.56 mg/kg/injection, schedule: Q01DX009 (ip), vehicle: saline 105 % of control | dose: 3.13 mg/kg/injection, schedule: Q01DX009 (ip), vehicle: saline 96 % of control | dose: 6.25 mg/kg/injection, schedule: Q01DX009 (ip), vehicle: saline 104 % of control

— PubChem BioAssay AID328 (DTP/NCI, 2004)
